Measured values from patent US5556744A, “Methods and compositions for diagnosing and treating certain HIV infected patients” (The Trustees of the University of Pennsylvania, priority 1994, dated 1996).

Tested on: maternal HIV+ sera (antibodies)
Assay: RIA / ELISA binding of maternal HIV+ sera to gp120 and gp41 peptides (Example 3)
Set-up: species or system human
Protocol: Radioimmunoassay (RIA) and enzyme-linked immunosorbent assay (ELISA) were performed by standard methodologies [E. Engvall, Meth. Immunol., 70:419-439 (1980); S. K. Pierce et al, J. Exp. Med., 144:1254-1262 (1976)]. Peptides were dissolved in 0.05M carbonate-bicarbonate buffer (pH 9.6) at a concentration of 10 μg/ml. Fifty μl (500 ng) of the peptides were immobilized in 96 well polyvinylchloride plates (Dynatech Laboratories, Inc.) overnight at 4° C. Plates were washed and non-specific sites were blocked with PBS containing 1% BSA overnight at 4° C.
Dilutions of HIV positive maternal sera were made in blocking buffer at dilutions of 1:50 and 1:500 and incubated in peptide coated plates overnight at 4° C. Plates were washed with PBS and incubated with 75,000 cpm of ^125 I-labelled goat anti-human IgG. The antibody was iodinated by a chloramine T method [W. V. Williams et al, Proc. Natl. Acad. Sci. USA, 85:6488-6492 (1988)]. Plates were washed, dried and counted in a gamma counter to measure specific binding. Normal human serum (i.e., HIV seronegative) was used as a control.
Alternatively, ELISA assays were performed in polystyrene plates (Dynatech Laboratories, Inc) in which 0.05% Tween 20 (Sigma Chemical Co.) was included in the washing, blocking and dilution buffers. The secondary antibody used was goat […] Ig conjugated to horseradish peroxidase (HRP) (Sigma Chemical Co). The substrate used for color development was 3,3',5,5' tetramethyl-benzidine dihydrochloride (TMB) (Sigma Chemical Co). Absorbance of samples was measured in a Dynatech MR5000 (Dynatech Laboratories, Inc.) plate reader and expressed as an optical density at wavelength of 450 nm (OD450).
The following key is used for the designation of specific binding of the maternal sera samples to the peptides: The minus sign, -, is equivalent to the specific OD450 or cpm of sera sample binding to peptide divided by the specific OD450 or cpm of NHS sample binding to peptide, which value is less than 2. The plus sign, +, is equivalent to the specific OD450 or cpm of sera sample binding to peptide divided by the specific OD450 or cpm of NHS sample binding to peptide, which value is between 2 to 3.
Specific binding is defined as the difference between the OD450 or cpm of sera to wells with peptide and the OD450 or cpm of sera to wells without peptide.
Comparisons of number of peptides which bound maternal serum samples were made between the transmission group and the nontransmission group. The data was analyzed using the unpaired student's test. For the determination of differences in the binding of specific peptides between transmission and non-transmission groups, the Spearman's rank-order correlation test was performed.

[1] = Serum No. 1, Non-Transmission Group
[2] = Serum No. 2, Non-Transmission Group
[3] = Serum No. 3, Non-Transmission Group
[4] = Serum No. 4, Transmission Group
[5] = Serum No. 5, Transmission Group
[6] = Serum No. 6, Non-Transmission Group
[7] = Serum No. 7, Non-Transmission Group
[8] = Serum No. 8, Non-Transmission Group
[9] = Serum No. 9, Non-Transmission Group
[10] = Serum No. 10, Transmission Group
[11] = Serum No. 11, Non-Transmission Group
[12] = Serum No. 12, Non-Transmission Group
[13] = Serum No. 13, Transmission Group
[14] = Serum No. 14, Transmission Group
[15] = Serum No. 15, Transmission Group
[16] = Serum No. 16, Non-Transmission Group
[17] = Serum No. 17, Non-Transmission Group
[18] = Serum No. 18, Non-Transmission Group
[19] = Serum No. 19, Transmission Group
[20] = Serum No. 20, Non-Transmission Group

With CTRPNNNTRKSIRIQ [Peptide 106] the “Percentage of sera samples demonstrating binding to peptide, non-transmitter” value (Non-transmitter group, n = 13) was 23.0%, the “Binding of maternal HIV+ serum to peptide (sera/NHS ratio)” value (from here on “Binding … (sera/NHS ratio)”) [1] was “- (specific OD450 or cpm of sera sample binding to peptide divided by the specific OD450 or cpm of NHS sample binding to peptide, which value is less than 2)” and the “Binding … (sera/NHS ratio)” value [2] was “- (specific OD450 or cpm of sera sample binding to peptide divided by the specific OD450 or cpm of NHS sample binding to peptide, which value is less than 2)”. For the same sequence, the “Binding … (sera/NHS ratio)” value [3] was “- (specific OD450 or cpm of sera sample binding to peptide divided by the specific OD450 or cpm of NHS sample binding to peptide, which value is less than 2)”, the “Binding … (sera/NHS ratio)” value [4] was “- (specific OD450 or cpm of sera sample binding to peptide divided by the specific OD450 or cpm of NHS sample binding to peptide, which value is less than 2)” and the “Binding … (sera/NHS ratio)” value [5] was “- (specific OD450 or cpm of sera sample binding to peptide divided by the specific OD450 or cpm of NHS sample binding to peptide, which value is less than 2)”. For the same sequence, the “Binding … (sera/NHS ratio)” value [6] was “- (specific OD450 or cpm of sera sample binding to peptide divided by the specific OD450 or cpm of NHS sample binding to peptide, which value is less than 2)”, the “Binding … (sera/NHS ratio)” value [7] was “- (specific OD450 or cpm of sera sample binding to peptide divided by the specific OD450 or cpm of NHS sample binding to peptide, which value is less than 2)” and the “Binding … (sera/NHS ratio)” value [8] was “- (specific OD450 or cpm of sera sample binding to peptide divided by the specific OD450 or cpm of NHS sample binding to peptide, which value is less than 2)”. The “Binding … (sera/NHS ratio)” value [9] was “- (specific OD450 or cpm of sera sample binding to peptide divided by the specific OD450 or cpm of NHS sample binding to peptide, which value is less than 2)”, the “Binding … (sera/NHS ratio)” value [10] was “- (specific OD450 or cpm of sera sample binding to peptide divided by the specific OD450 or cpm of NHS sample binding to peptide, which value is less than 2)” and the “Binding … (sera/NHS ratio)” value [11] was “- (specific OD450 or cpm of sera sample binding to peptide divided by the specific OD450 or cpm of NHS sample binding to peptide, which value is less than 2)”. For the same sequence, the “Binding … (sera/NHS ratio)” value [12] was “- (specific OD450 or cpm of sera sample binding to peptide divided by the specific OD450 or cpm of NHS sample binding to peptide, which value is less than 2)”, the “Binding … (sera/NHS ratio)” value [13] was “++ (which value is greater than 3)” and the “Binding … (sera/NHS ratio)” value [14] was “++ (which value is greater than 3)”. For the same sequence, the “Binding … (sera/NHS ratio)” value [15] was “++ (which value is greater than 3)”, the “Binding … (sera/NHS ratio)” value [16] was “+ (which value is between 2 to 3)” and the “Binding … (sera/NHS ratio)” value [17] was “++ (which value is greater than 3)”. The “Binding … (sera/NHS ratio)” value [18] was “- (specific OD450 or cpm of sera sample binding to peptide divided by the specific OD450 or cpm of NHS sample binding to peptide, which value is less than 2)”, the “Binding … (sera/NHS ratio)” value [19] was “- (specific OD450 or cpm of sera sample binding to peptide divided by the specific OD450 or cpm of NHS sample binding to peptide, which value is less than 2)” and the “Binding … (sera/NHS ratio)” value [20] was “+ (which value is between 2 to 3)”. For the same sequence, the “Percentage of sera samples demonstrating binding to peptide, transmitter” value (Transmitter / transmission group, n = 7) was 42.9% and the “Percent of the maternal serum samples that bound to the peptide” value (all 20 samples) was 30%.
With GYSPLSFQTHPIPR [Peptide 128] the “Binding … (sera/NHS ratio)” value [1] was “- (specific OD450 or cpm of sera sample binding to peptide divided by the specific OD450 or cpm of NHS sample binding to peptide, which value is less than 2)”, the “Binding … (sera/NHS ratio)” value [2] was “- (specific OD450 or cpm of sera sample binding to peptide divided by the specific OD450 or cpm of NHS sample binding to peptide, which value is less than 2)” and the “Binding … (sera/NHS ratio)” value [3] was “- (specific OD450 or cpm of sera sample binding to peptide divided by the specific OD450 or cpm of NHS sample binding to peptide, which value is less than 2)”. The “Binding … (sera/NHS ratio)” value [4] was “- (specific OD450 or cpm of sera sample binding to peptide divided by the specific OD450 or cpm of NHS sample binding to peptide, which value is less than 2)”, the “Binding … (sera/NHS ratio)” value [5] was “- (specific OD450 or cpm of sera sample binding to peptide divided by the specific OD450 or cpm of NHS sample binding to peptide, which value is less than 2)” and the “Binding … (sera/NHS ratio)” value [6] was “- (specific OD450 or cpm of sera sample binding to peptide divided by the specific OD450 or cpm of NHS sample binding to peptide, which value is less than 2)”. For the same sequence, the “Binding … (sera/NHS ratio)” value [7] was “- (specific OD450 or cpm of sera sample binding to peptide divided by the specific OD450 or cpm of NHS sample binding to peptide, which value is less than 2)”, the “Binding … (sera/NHS ratio)” value [8] was “- (specific OD450 or cpm of sera sample binding to peptide divided by the specific OD450 or cpm of NHS sample binding to peptide, which value is less than 2)” and the “Binding … (sera/NHS ratio)” value [9] was “- (specific OD450 or cpm of sera sample binding to peptide divided by the specific OD450 or cpm of NHS sample binding to peptide, which value is less than 2)”. The “Binding … (sera/NHS ratio)” value [10] was “- (specific OD450 or cpm of sera sample binding to peptide divided by the specific OD450 or cpm of NHS sample binding to peptide, which value is less than 2)”, the “Binding … (sera/NHS ratio)” value [11] was “- (specific OD450 or cpm of sera sample binding to peptide divided by the specific OD450 or cpm of NHS sample binding to peptide, which value is less than 2)” and the “Binding … (sera/NHS ratio)” value [12] was “- (specific OD450 or cpm of sera sample binding to peptide divided by the specific OD450 or cpm of NHS sample binding to peptide, which value is less than 2)”. The “Binding … (sera/NHS ratio)” value [13] was “- (specific OD450 or cpm of sera sample binding to peptide divided by the specific OD450 or cpm of NHS sample binding to peptide, which value is less than 2)”, the “Binding … (sera/NHS ratio)” value [14] was “- (specific OD450 or cpm of sera sample binding to peptide divided by the specific OD450 or cpm of NHS sample binding to peptide, which value is less than 2)” and the “Binding … (sera/NHS ratio)” value [15] was “- (specific OD450 or cpm of sera sample binding to peptide divided by the specific OD450 or cpm of NHS sample binding to peptide, which value is less than 2)”. For the same sequence, the “Binding … (sera/NHS ratio)” value [16] was “- (specific OD450 or cpm of sera sample binding to peptide divided by the specific OD450 or cpm of NHS sample binding to peptide, which value is less than 2)”, the “Binding … (sera/NHS ratio)” value [17] was “- (specific OD450 or cpm of sera sample binding to peptide divided by the specific OD450 or cpm of NHS sample binding to peptide, which value is less than 2)” and the “Binding … (sera/NHS ratio)” value [18] was “- (specific OD450 or cpm of sera sample binding to peptide divided by the specific OD450 or cpm of NHS sample binding to peptide, which value is less than 2)”. The “Binding … (sera/NHS ratio)” value [19] was “- (specific OD450 or cpm of sera sample binding to peptide divided by the specific OD450 or cpm of NHS sample binding to peptide, which value is less than 2)” and the “Binding … (sera/NHS ratio)” value [20] was “- (specific OD450 or cpm of sera sample binding to peptide divided by the specific OD450 or cpm of NHS sample binding to peptide, which value is less than 2)”.
